Assays:
Test in all cases: relative viability (nuclei count vs DMSO), 5 days (fraction); higher = more cells survive
[1] = compound: CC1=C(C(=NN1)C)CC2=C(C3=C(S2)N(C(=O)N(C3=O)C)CC(C)C)C(=O)N4C[C@@H](CO4)O + Cc1nc(Nc2ncc(C(=O)Nc3c(C)cccc3Cl)s2)cc(N2CCN(CCO)CC2)n1 [Dasatinib] (partner 0.075 µM)
How it was run: (§1)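 Medians of duplicate plates are given as relative viability. That measure is the nuclei count in treated wells divided by the count in vehicle wells. Counts were taken on 4× images of lung cancer cell lines in 1536-well plates, 5 days after pin-tool dosing the day after seeding with one drug alone or a fixed anchor-drug dose plus five library-drug doses (not always all listed) in √10 steps.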

IDH-C35 + Foretinib = compound: Cc1ccccc1C(C(=O)NC1CCCCC1)N(C(=O)Cn1ccnc1C)c1cccc(F)c1 [IDH-C35] + COc1cc2c(Oc3ccc(NC(=O)C4(C(=O)Nc5ccc(F)cc5)CC4)cc3F)ccnc2cc1OCCCN1CCOCC1 [Foretinib] (partner 0.25 µM)
How it was run: as §1

[2] = compound: CC1=C(C(=NN1)C)CC2=C(C3=C(S2)N(C(=O)N(C3=O)C)CC(C)C)C(=O)N4C[C@@H](CO4)O + CC(C)C[C@H](NC(=O)[C@H](Cc1ccccc1)NC(=O)c1cnccn1)B(O)O [Bortezomib] (partner 0.002 µM)
How it was run: as §1

IDH-C35 + Trametinib = compound: Cc1ccccc1C(C(=O)NC1CCCCC1)N(C(=O)Cn1ccnc1C)c1cccc(F)c1 [IDH-C35] + CC(=O)Nc1cccc(-n2c(=O)n(C3CC3)c(=O)c3c(Nc4ccc(I)cc4F)n(C)c(=O)c(C)c32)c1 [Trametinib] (partner 0.02 µM)
How it was run: as §1

Row | Cell Line | relative viability ([1]; first compound 0.0025 µM) | relative viability ([1]; first compound 0.007906 µM) | relative viability ([1]; first compound 0.025 µM) | relative viability ([1]; first compound 0.07906 µM) | relative viability ([1]; first compound 0.25 µM) | relative viability (IDH-C35 + Foretinib; first compound 0.08 µM) | relative viability (IDH-C35 + Foretinib; first compound 0.253 µM) | relative viability (IDH-C35 + Foretinib; first compound 0.8 µM) | relative viability (IDH-C35 + Foretinib; first compound 2.53 µM) | relative viability (IDH-C35 + Foretinib; first compound 8 µM) | relative viability ([2]; first compound 0.0025 µM) | relative viability ([2]; first compound 0.007906 µM) | relative viability ([2]; first compound 0.025 µM) | relative viability ([2]; first compound 0.07906 µM) | relative viability ([2]; first compound 0.25 µM) | relative viability (IDH-C35 + Trametinib; first compound 0.08 µM) | relative viability (IDH-C35 + Trametinib; first compound 0.253 µM) | relative viability (IDH-C35 + Trametinib; first compound 0.8 µM) | relative viability (IDH-C35 + Trametinib; first compound 2.53 µM) | relative viability (IDH-C35 + Trametinib; first compound 8 µM)
1 | NCI-H23 | 0.926 | 1.05 | 0.82 | 0.725 | 0.964 | 0.912 | 1.03 | 1.1 | 1.04 | 0.846 | 1.07 | 1.24 | 0.848 | 0.964 | 1.33 | 0.347 | 0.456 | 0.282 | 0.392 | 0.325
2 | 201T | 0.579 | 0.624 | 0.6 | 0.59 | 0.551 | 1.12 | 1.06 | 1.08 | 1.01 | 1.05 | 1.15 | 1.07 | 1.03 | 1.06 | 1.12 | 0.727 | 0.7 | 0.718 | 0.701 | 0.676
3 | NCI-H460 | 0.552 | 0.675 | 0.532 | 0.517 | 0.494 | 1.02 | 1.01 | 1.02 | 0.989 | 0.904 | 1.1 | 1.37 | 0.984 | 1.07 | 1.28 | 0.165 | 0.133 | 0.176 | 0.165 | 0.0866
4 | NCI-H661 | 0.907 | 0.833 | 0.906 | 0.881 | 0.872 | 1.03 | 0.964 | 0.981 | 0.988 | 1.03 | 1 | 1.01 | 0.692 | 0.882 | 0.635 | 0.592 | 0.575 | 0.548 | 0.557 | 0.561
5 | HCC-15 | 0.605 | 0.601 | 0.682 | 0.574 | 0.656 | 1.07 | 0.974 | 0.938 | – | 0.869 | 1 | 0.945 | 0.979 | 1.02 | 1.2 | 0.37 | 0.395 | 0.428 | – | 0.371
6 | LCLC-103H | 0.669 | 0.493 | 0.489 | 0.357 | 0.513 | 0.795 | 0.717 | 0.85 | 0.754 | 0.736 | 1.11 | 1.08 | 1.15 | 1.04 | 1.05 | 0.704 | 0.672 | 0.727 | 0.656 | 0.7
7 | NCI-H441 | 0.65 | 0.59 | 0.679 | 0.411 | 0.583 | 0.863 | 0.753 | 0.948 | 1 | 0.888 | 0.822 | 0.34 | 0.626 | 0.636 | 0.707 | 0.435 | 0.415 | 0.5 | 0.542 | 0.484
8 | EPLC-272H | 0.527 | 0.376 | 0.418 | 0.24 | 0.305 | 0.659 | 0.828 | 0.751 | 0.71 | 0.733 | 0.919 | 0.874 | 0.971 | 1.01 | 0.925 | 0.259 | 0.308 | 0.324 | – | 0.257
